The record followed here is BindingDB's records for doi:10.1021/ml400413c (Dart Neuroscience, 2013).

The target in experiment [1] is T1, Peroxisome proliferator-activated receptor delta (Homo sapiens, UniProt Q03181).
T1 sequence (Q03181 whole entry): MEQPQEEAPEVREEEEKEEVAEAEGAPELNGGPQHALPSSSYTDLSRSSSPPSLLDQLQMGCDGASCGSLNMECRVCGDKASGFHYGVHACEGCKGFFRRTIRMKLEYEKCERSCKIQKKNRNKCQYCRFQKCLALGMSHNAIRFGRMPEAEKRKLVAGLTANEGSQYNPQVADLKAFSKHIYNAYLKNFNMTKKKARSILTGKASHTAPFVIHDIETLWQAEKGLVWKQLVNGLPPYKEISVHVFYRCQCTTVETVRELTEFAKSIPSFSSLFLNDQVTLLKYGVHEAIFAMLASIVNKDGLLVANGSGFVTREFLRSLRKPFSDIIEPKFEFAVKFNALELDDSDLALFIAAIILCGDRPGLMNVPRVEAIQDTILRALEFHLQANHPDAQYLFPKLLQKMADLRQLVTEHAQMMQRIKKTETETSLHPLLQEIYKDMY
Briefly: Agonist activity at human PPARdelta ligand binding domain expressed in monkey COS7 cells cotransfected with Gal4 by luciferase reporter gene assay.

In experiment [2] the target is T2, Peroxisome proliferator-activated receptor gamma (Homo sapiens, UniProt P37231).
T2 sequence (P37231 whole entry): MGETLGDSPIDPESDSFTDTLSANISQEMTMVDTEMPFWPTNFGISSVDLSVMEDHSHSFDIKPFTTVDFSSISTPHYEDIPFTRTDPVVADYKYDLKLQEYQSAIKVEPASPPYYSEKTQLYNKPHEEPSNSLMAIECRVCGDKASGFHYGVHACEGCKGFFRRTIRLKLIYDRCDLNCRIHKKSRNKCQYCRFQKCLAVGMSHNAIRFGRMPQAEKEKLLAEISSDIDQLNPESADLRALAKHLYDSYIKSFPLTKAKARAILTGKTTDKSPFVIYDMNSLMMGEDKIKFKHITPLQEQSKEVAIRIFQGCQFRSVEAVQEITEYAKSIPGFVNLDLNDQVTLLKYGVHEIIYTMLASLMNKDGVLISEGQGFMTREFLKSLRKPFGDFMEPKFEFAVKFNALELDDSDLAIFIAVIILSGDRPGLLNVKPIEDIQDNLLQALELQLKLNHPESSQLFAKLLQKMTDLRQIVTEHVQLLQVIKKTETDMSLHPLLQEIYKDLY
Briefly: Agonist activity at human PPARgamma ligand binding domain expressed in monkey COS7 cells cotransfected with Gal4 by luciferase reporter gene assay.

As to `COC(c1ccc(Br)cc1)C1CC1c1cc(C)c(OC(C)(C)C(=O)O)c(C)c1` (stereo not drawn), the results for the EC50 in experiment [1] and in experiment [2] were 54 nM and 19 nM, respectively.

`CCOC(c1ccc(OC(F)(F)F)cc1)C1CC1c1cc(C)c(OC(C)(C)C(=O)O)c(C)c1` (stereo not drawn) had a half-maximal effective concentration (EC50) in experiment [2] of 39 nM.
